Consider 5 compounds from US20250197398A1, “Varenicline Related Compounds and Methods for Treating Diseases and Conditions Including Tobacco Use Disorder” (SpaceRX LLC, priority 2022, published 2025).

Format in all cases: in vivo
Data set [1] deals with anxiety-like behavior in mice. The data set is described as follows: Open field assay after oral compound administration. The note with it: varenicline 1.5 and 4.5 mpk, FIG. 5. The source says:
FIG. 5 is a bar graph illustrating open field responses to oral administration of compounds.
Varenicline also influenced the mobility and anxiety-like behavior in mice.

For data set [2], the system named is nicotine-induced dopamine signaling in the striatum. The data set is described as follows: Nicotine-evoked striatal dopamine release after compound pretreatment (GRAB-DA sensor, fiber photometry). The note with it: awake mice pretreated with compound; IP nicotine 2 hours later; mean dopamine response for 30 minutes following nicotine; varenicline 1.5 and 4.5 mpk; FIG. 2A-2C. The source says:
(§1) FIG. 1A-FIG. 1B are a schematic and a response curve illustrating the monitoring of striatal dopamine in the awake behaving animal in response to varenicline. […] Scale bar, 200 μm.
FIG. 2A-FIG. 2C are bar graphs and a response curve illustrating the striatal dopamine responses to nicotine. […] FIGS. 2B-2C show exemplary traces and quantification of striatal dopamine responses preceding and following an IP administration of nicotine. Mice were pretreated either with Varenicline (light grey) or Varenicline-Encarbil (dark grey).
(§2) The ability of varenicline to decrease nicotine use comes from the ability to block nicotine-induced dopamine signaling in the striatum. Real-time sensing of dopamine levels in awake and behaving mice was measured using a fluorescent dopamine sensor (GRAB-DA) and fluorometric measurements of that sensor (Fiber Photometry).

In a further data set the test system is striatal dopamine levels. Nature of the data set: Striatal dopamine response to oral compound administration (GRAB-DA sensor, fiber photometry). The note with it: awake mice; mean for 30 minutes following compound administration; varenicline 1.5 and 4.5 mpk; FIG. 3A-3B.
Text: as §1
FIG. 3A-FIG. 3B are a bar graph and a response curve illustrating the striatal dopamine responses to oral compound administration.
as §2

`O=C(N[C@@H](CO)C(=O)O)c1ccc[n+](COC(=O)N2CC3CC(C2)c2cc4nccnc4cc23)c1` [Servarenicline Chloride]: the “anxiety-like behavior: time spent in center of open field” value (shortened to “anxiety-like behavior: time spent”) in data set [1] is reported as “not observed”. Besides, the “efficacy at reducing the nicotine-evoked release of dopamine” value in data set [2] is “better efficacy when compared directly to varenicline”. The “striatal dopamine response following oral administration of compound” value in the data set with striatal dopamine levels was “do not lead to dopamine release”.

Consider `NCC(=O)N1CC2CC(C1)c1cc3nccnc3cc12` [Varenicline Glycinamide], for which the “anxiety-like behavior: time spent” value in data set [1] is “not observed”. The “striatal dopamine response following oral administration of compound” value in the data set with striatal dopamine levels is “do not lead to dopamine release”.

For the compound `N[C@@H](Cc1ccc(OC(=O)N2CC3CC(C2)c2cc4nccnc4cc23)cc1)C(=O)O` [Varenicline-CBT], in data set [1], the “anxiety-like behavior: time spent” value is on record as “not observed”. In addition, the “striatal dopamine response following oral administration of compound” value with striatal dopamine levels is reported as “do not lead to dopamine release”.

Take `CC(OC(=O)C(C)C)OC(=O)N1CC2CC(C1)c1cc3nccnc3cc12` (stereo not drawn) [Varenicline-Encarbil]: in data set [2], the “efficacy at reducing the nicotine-evoked release of dopamine” value is “better efficacy when compared directly to varenicline”. The “striatal dopamine response following oral administration of compound” value with striatal dopamine levels is given as “mimic the effects of varenicline”.

Turning to `c1cnc2cc3c(cc2n1)[C@@H]1CNC[C@H]3C1` [varenicline], in data set [1], the “anxiety-like behavior: time spent” value was “dramatically reduced time in the middle”. The “efficacy at reducing the nicotine-evoked release of dopamine” value in data set [2] is reported as “regardless the dose of varenicline, the response to nicotine 2 hours later is the same”. Also, in the data set on striatal dopamine levels, the “striatal dopamine response following oral administration of compound” value is recorded as “increased striatal dopamine levels after administration”.
